Consider four compounds from US8741836B2, “Polypeptides” (Novo Nordisk A/S, priority 2011, dated 2014).

Starred links: 1 amine or outer side, 2 acyl side, 3 side chain; linkers in the order of their positions; H or OH if unused. Positions of bridges follow the written chain, without caps; N, C: chain ends. Residues, ends and D or L forms follow the SMILES beside them. *: point of attachment. C20 diacid = O=C(O)CCCCCCCCCCCCCCCCCCC(=O)*; γGlu = O=C(O)[C@H](CCC(=O)[*:2])N[*:1] Where only a bound is given, the exact number is not on record here.

The nature of the series: Assay (III) ThT fibrillation assay for physical stability. The series is classed as physicochemical. Particulars: for ThT pH 4.0 lag time: pH 4.0, ThT fibrillation assay. In short, it runs like this:
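Freshly prepared, pH-adjusted formulations with 1 μM ThT incubated at 37 °C under 960 rpm orbital shaking (1 mm), fluorescence (ex 444, em 485 nm) read every 20 min. […] Peptide content before and after measured by reverse-phase HPLC against pramlintide standard.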

For the compound `CC[C@H](C)[C@H](NC(=O)[C@@H]1CCCN1C(=O)CNC(=O)[C@H](Cc1ccccc1)NC(=O)[C@H](CO)NC(=O)[C@H](CO)NC(=O)[C@H](CO)NC(=O)[C@H](CO)NC(=O)[C@H](CCCNC(=N)N)NC(=O)[C@H](Cc1cnc[nH]1)NC(=O)[C@H](CC(C)C)NC(=O)[C@H](Cc1ccccc1)NC(=O)[C@H](CCC(=O)O)NC(=O)[C@H](C)NC(=O)[C@H](CC(C)C)NC(=O)[C@H](CCCNC(=N)N)NC(=O)[C@H](CCC(N)=O)NC(=O)[C@@H](NC(=O)[C@H](C)NC(=O)[C@@H]1CSSC[C@H](NC(=O)[C@H](Cc2cnc[nH]2)NC(=O)CC[C@H](NC(=O)CCCCCCCCCCCCCCCCCCC(=O)O)C(=O)O)C(=O)N[C@@H](CC(N)=O)C(=O)N[C@@H]([C@@H](C)O)C(=O)N[C@@H](C)C(=O)N[C@@H]([C@@H](C)O)C(=O)N1)[C@@H](C)O)C(=O)N[C@@H](CC(C)C)C(=O)N1CCC[C@H]1C(=O)N1CCC[C@H]1C(=O)N[C@H](C(=O)N[C@@H](CC(=O)O)C(=O)N[C@H](C(=O)NCC(=O)N[C@@H](CO)C(=O)N[C@@H](CC(=O)O)C(=O)N[C@H](C(=O)N[C@@H](Cc1ccc(O)cc1)C(N)=O)[C@@H](C)O)C(C)C)[C@@H](C)O` [Example 9, N-alpha-[(S)-4-Carboxy-4-(19-carboxynonadecanoylamino)butyryl]-[His1,Glu14,His17,Arg18,Ser21,Ser22,Asp31,Asp35]-pramlintide] ({C20 diacid-γGlu}-HCNTATCATQRLAEFLHRSSSSFGPILPPTDVGSDTY-NH2; disulfide 2-7), the “ThT pH 4.0 lag time (physical stability in fibrillogenesis assay)” value was greater than 45 h.
Consider `CC[C@H](C)[C@H](NC(=O)[C@@H]1CCCN1C(=O)CNC(=O)[C@H](Cc1ccccc1)NC(=O)[C@H](CC(N)=O)NC(=O)[C@H](CC(N)=O)NC(=O)[C@H](CO)NC(=O)[C@H](CO)NC(=O)[C@H](CCCNC(=N)N)NC(=O)[C@H](Cc1c[nH]cn1)NC(=O)[C@H](CC(C)C)NC(=O)[C@H](Cc1ccccc1)NC(=O)[C@H](CCC(=O)O)NC(=O)[C@H](C)NC(=O)[C@H](CC(C)C)NC(=O)[C@H](CCCNC(=N)N)NC(=O)[C@H](CCC(N)=O)NC(=O)[C@@H](NC(=O)[C@H](C)NC(=O)[C@@H]1CSSC[C@H](NC(=O)[C@H](CCCCN)NC(=O)CC[C@H](NC(=O)CCCCCCCCCCCCCCCCCCC(=O)O)C(=O)O)C(=O)N[C@@H](CC(N)=O)C(=O)N[C@@H]([C@@H](C)O)C(=O)N[C@@H](C)C(=O)N[C@@H]([C@@H](C)O)C(=O)N1)[C@@H](C)O)C(=O)N[C@@H](CC(C)C)C(=O)N1CCC[C@H]1C(=O)N1CCC[C@H]1C(=O)N[C@H](C(=O)N[C@@H](CC(N)=O)C(=O)N[C@H](C(=O)NCC(=O)N[C@@H](CO)C(=O)N[C@@H](Cc1c[nH]cn1)C(=O)N[C@H](C(=O)N[C@@H](Cc1ccc(O)cc1)C(N)=O)[C@@H](C)O)C(C)C)[C@@H](C)O` [Example 78, N-alpha-[(S)-4-Carboxy-4-(19-carboxynonadecanoylamino)butyryl]-[Glu14,His17,Arg18,His35]-pramlintide] ({C20 diacid-γGlu}-KCNTATCATQRLAEFLHRSSNNFGPILPPTNVGSHTY-NH2; disulfide 2-7 (inferred)), for which the “ThT pH 4.0 lag time” value is greater than 45 h.
As to `CC[C@H](C)[C@H](NC(=O)[C@@H]1CCCN1C(=O)CNC(=O)[C@H](Cc1ccccc1)NC(=O)[C@H](CC(N)=O)NC(=O)[C@H](CCC(N)=O)NC(=O)[C@H](CO)NC(=O)[C@H](CO)NC(=O)[C@H](Cc1c[nH]cn1)NC(=O)[C@H](Cc1c[nH]cn1)NC(=O)[C@H](CC(C)C)NC(=O)[C@H](Cc1ccccc1)NC(=O)[C@H](CCC(=O)O)NC(=O)[C@H](C)NC(=O)[C@H](CC(C)C)NC(=O)[C@H](CCCNC(=N)N)NC(=O)[C@H](CCC(N)=O)NC(=O)[C@@H](NC(=O)[C@H](C)NC(=O)[C@@H]1CSSC[C@H](NC(=O)[C@H](CCCCN)NC(=O)CC[C@H](NC(=O)CCCCCCCCCCCCCCCCCCC(=O)O)C(=O)O)C(=O)N[C@@H](CC(N)=O)C(=O)N[C@@H]([C@@H](C)O)C(=O)N[C@@H](C)C(=O)N[C@@H]([C@@H](C)O)C(=O)N1)[C@@H](C)O)C(=O)N[C@@H](CC(C)C)C(=O)N1CCC[C@H]1C(=O)N1CCC[C@H]1C(=O)N[C@H](C(=O)N[C@@H](CC(N)=O)C(=O)N[C@H](C(=O)NCC(=O)N[C@@H](CO)C(=O)N[C@@H](CCC(N)=O)C(=O)N[C@H](C(=O)N1CCC[C@H]1C(N)=O)[C@@H](C)O)C(C)C)[C@@H](C)O` [Example 136, N-alpha-[(S)-4-Carboxy-4-(19-carboxynonadecanoylamino)butyryl]-[Glu14,His17,Gln21,Gln35,Pro37]-pramlintide] ({C20 diacid-γGlu}-KCNTATCATQRLAEFLHHSSQNFGPILPPTNVGSQTP-NH2; disulfide 2-7 (inferred)), the “ThT pH 4.0 lag time (physical stability in fibrillogenesis assay)” value is recorded as greater than 45 h and the “ThT pH 4.0 lag time” value is recorded as greater than 45 h.
Turning to `CC[C@H](C)[C@H](NC(=O)[C@@H]1CCCN1C(=O)CNC(=O)[C@H](Cc1ccccc1)NC(=O)[C@H](CC(N)=O)NC(=O)[C@H](CC(N)=O)NC(=O)[C@H](CO)NC(=O)[C@H](CO)NC(=O)[C@H](Cc1c[nH]cn1)NC(=O)[C@H](CCCNC(=N)N)NC(=O)[C@H](CC(C)C)NC(=O)[C@H](Cc1ccccc1)NC(=O)[C@H](CCC(=O)O)NC(=O)[C@H](C)NC(=O)[C@H](CC(C)C)NC(=O)[C@H](CCCNC(=N)N)NC(=O)[C@H](CCC(N)=O)NC(=O)[C@@H](NC(=O)[C@H](C)NC(=O)[C@@H]1CSSC[C@H](NC(=O)[C@H](CCCCN)NC(=O)[C@H](Cc2c[nH]cn2)NC(=O)CC[C@H](NC(=O)CCCCCCCCCCCCCCCCCCC(=O)O)C(=O)O)C(=O)N[C@@H](CC(N)=O)C(=O)N[C@@H]([C@@H](C)O)C(=O)N[C@@H](C)C(=O)N[C@@H]([C@@H](C)O)C(=O)N1)[C@@H](C)O)C(=O)N[C@@H](CC(C)C)C(=O)N1CCC[C@H]1C(=O)N1CCC[C@H]1C(=O)N[C@H](C(=O)N[C@@H](CC(N)=O)C(=O)N[C@H](C(=O)NCC(=O)N[C@@H](CO)C(=O)N[C@@H](Cc1c[nH]cn1)C(=O)N[C@H](C(=O)N[C@@H](Cc1ccc(O)cc1)C(N)=O)[C@@H](C)O)C(C)C)[C@@H](C)O` [Example 68, N-alpha-[(S)-4-Carboxy-4-(19-carboxynonadecanoylamino)butyryl]-His-[Glu14,Arg17,His35]-pramlintide] ({C20 diacid-γGlu}-HKCNTATCATQRLAEFLRHSSNNFGPILPPTNVGSHTY-NH2; disulfide 3-8 (inferred); C-terminus assumed), the “ThT pH 4.0 lag time” value is reported as greater than 45 h.
